The numbers were not newly measured in patent US20120141398A1, “HAIR DYE CONTAINING ONE OR MORE EDIBLE OR COSMETIC COLORS” (priority 2010, published 2012), which cites them from elsewhere.

One data set has as its system large rat. The conditions noted are these: text b11, species not given.

For `COc1ccc(N)cc1N` [2,4 diaminoanisole], the “Ames Test (mutagenicity)” value with Salmonella typhimurium is recorded as “+”.

As to `CCc1ccc(N)cc1N` [2,4-diamino-ethylbenzene], the “Ames Test (mutagenicity)” value in the data set on Salmonella typhimurium was “+”. `Nc1ccccc1O` [2-Aminophenol]: the “Median Lethal Dose/Kg” value with small rat (small rat) was 800 g (small rat) g/Kg. Turning to `Nc1cc([N+](=O)[O-])ccc1O` [2-amino-4-nitrophenolate], the “Ames Test (mutagenicity)” value in the data set with Salmonella typhimurium is “+”. Regarding `Nc1ccc(OCCO)cc1[N+](=O)[O-]` [4-amino-3-nitro-phenoxyethanol], in the data set on Salmonella typhimurium, the “Ames Test (mutagenicity)” value is listed as “+”. Turning to `Oc1cccc(O)c1` [Resorcinol], in the data set on small rat (rat, in vivo), the median lethal dose was 200 mg/kg. Consider `Nc1cccc(N)c1` [m-phenylenediamine], for which the “Ames Test (mutagenicity)” value with Salmonella typhimurium is on record as “+”.

With `Nc1ccccc1N` [o-phenylenediamine], in the data set on Salmonella typhimurium, the “Ames Test (mutagenicity)” value was “+”. In the case of `Nc1ccc(N)cc1` [p-phenylenediamine], the median lethal dose in the data set with large rat is recorded as 80 mg/kg. Moreover, the “Ames Test (mutagenicity)” value in the data set with Salmonella typhimurium was “+”.
